Patent publication US9695154B2, “Heteroaryl inhibitors of sumo activating enzyme” (MILLENNIUM PHARMACEUTICALS, INC., priority 2013, dated 2017)
Counter-ions that a name gives are not always drawn.

Biological target: T1, recombinant human SAE enzyme (Homo sapiens, UniProt Q9UBT2)
T1 sequence (Q9UBT2 1-640): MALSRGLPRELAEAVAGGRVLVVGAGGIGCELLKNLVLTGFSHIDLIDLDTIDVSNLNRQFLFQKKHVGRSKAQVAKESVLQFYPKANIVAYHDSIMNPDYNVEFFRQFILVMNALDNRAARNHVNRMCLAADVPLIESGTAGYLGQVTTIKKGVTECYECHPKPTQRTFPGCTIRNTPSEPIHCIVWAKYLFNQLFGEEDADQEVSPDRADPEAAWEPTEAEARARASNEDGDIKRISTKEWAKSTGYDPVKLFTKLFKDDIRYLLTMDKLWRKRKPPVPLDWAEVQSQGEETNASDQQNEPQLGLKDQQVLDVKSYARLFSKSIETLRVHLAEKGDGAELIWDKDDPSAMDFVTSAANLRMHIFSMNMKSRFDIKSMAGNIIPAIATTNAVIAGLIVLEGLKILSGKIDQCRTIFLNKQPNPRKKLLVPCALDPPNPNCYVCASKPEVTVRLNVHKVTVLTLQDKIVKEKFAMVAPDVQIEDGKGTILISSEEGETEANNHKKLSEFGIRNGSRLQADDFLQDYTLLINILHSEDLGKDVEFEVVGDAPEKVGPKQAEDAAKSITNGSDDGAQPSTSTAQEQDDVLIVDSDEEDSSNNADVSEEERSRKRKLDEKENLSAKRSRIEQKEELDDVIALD
T1 sequence (Q9UBE0 1-346 partner): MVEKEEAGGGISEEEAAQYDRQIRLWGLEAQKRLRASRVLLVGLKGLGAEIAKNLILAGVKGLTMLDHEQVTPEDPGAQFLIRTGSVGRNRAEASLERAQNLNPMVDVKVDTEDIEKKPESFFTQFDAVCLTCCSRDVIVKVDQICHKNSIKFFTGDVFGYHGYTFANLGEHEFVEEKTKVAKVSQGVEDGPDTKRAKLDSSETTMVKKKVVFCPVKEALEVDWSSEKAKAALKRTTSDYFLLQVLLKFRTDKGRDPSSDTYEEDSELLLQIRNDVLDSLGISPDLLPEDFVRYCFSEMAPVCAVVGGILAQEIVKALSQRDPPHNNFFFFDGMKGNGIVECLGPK
Test: SAE HTRF Enzyme Assay
Assay type: biochemical
Conditions: for IC50: class symbols A-C; for inhibition at 0.111 µM: compound concentration 0.111 μM, read-out: Percent Inhibition
In short: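 SAE 0.11 nM; ATP 0.5 μM; Sumo-Flag 0.125 μM; Ubc9-GST 0.01 μM; 250 μM GSH, 5 mM MgCl2, pH 7.5. 105 min, 24° C. EDTA/KF stop plus Eu/APC antibodies, 2 h, TR-FRET. % inhibition or IC50.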

Work on `Cn1ccc(C(=O)c2cncnc2N[C@@H]2C[C@H](COS(N)(=O)=O)[C@@H](O)[C@H]2O)n1` [Compound I-345, [(1R,2R,3S,4R)-2,3-dihydroxy-4-({5-[(1-methyl-1H-pyrazol-3-yl)carbonyl]pyrimidin-4-yl}amino)cyclopentyl]methyl sulfamate] yielded an IC50 of 0.1 to 1 µM and an inhibition at 0.111 µM of 54%.
`NS(=O)(=O)OC[C@H]1C[C@@H](Nc2ncncc2C(=O)c2ccn(Cc3cc(Br)ccc3F)n2)C[C@@H]1O` [Compound I-346, {(1R,2S,4R)-4-[(5-{[1-(5-bromo-2-fluorobenzyl)-1H-pyrazol-3-yl]carbonyl}pyrimidin-4-yl)amino]-2-hydroxycyclopentyl}methyl sulfamate] was tested, and the IC50 was < 0.01 µM and the inhibition at 0.111 µM was 100%.
In the case of `Cc1cc(C(=O)c2cncnc2N[C@@H]2C[C@H](COS(N)(=O)=O)[C@@H](O)C2)nn1Cc1cccc(I)c1` [Compound I-347, {(1R,2S,4R)-2-hydroxy-4-[(5-{[1-(3-iodobenzyl)-5-methyl-1H-pyrazol-3-yl]carbonyl}pyrimidin-4-yl)amino]cyclopentyl}methyl sulfamate], the IC50 is reported as < 0.01 µM and the inhibition at 0.111 µM is reported as > 99%.
With `Cc1cc(Cn2ccc(C(=O)c3cncnc3N[C@@H]3C[C@H](COS(N)(=O)=O)[C@@H](O)C3)n2)no1` [Compound I-348, [(1R,2S,4R)-2-hydroxy-4-{[5-({1-[(5-methylisoxazol-3-yl)methyl]-1H-pyrazol-3-yl}carbonyl)pyrimidin-4-yl]amino}cyclopentyl]methyl sulfamate] the IC50 was < 0.01 µM and the inhibition at 0.111 µM was 94%.
With `NS(=O)(=O)OC[C@H]1C[C@@H](Nc2ncncc2C(=O)c2ccn(Cc3cccc(OC(F)(F)F)c3)n2)[C@H](O)[C@@H]1O` [Compound I-349, [(1R,2R,3S,4R)-2,3-dihydroxy-4-{[5-({1-[3-(trifluoromethoxy)benzyl]-1H-pyrazol-3-yl}carbonyl)pyrimidin-4-yl]amino}cyclopentyl]methyl sulfamate] the IC50 was < 0.01 µM and the inhibition at 0.111 µM was 100%.
For `NS(=O)(=O)OC[C@H]1C[C@@H](Nc2ncncc2C(=O)c2ccn(Cc3cccc(Br)n3)n2)C[C@@H]1O` [Compound I-352, [(1R,2S,4R)-4-{[5-({1-[(6-bromopyridin-2-yl)methyl]-1H-pyrazol-3-yl}carbonyl)pyrimidin-4-yl]amino}-2-hydroxycyclopentyl]methyl sulfamate], the IC50 was < 0.01 µM and the inhibition at 0.111 µM was 99%.
In the case of `CC(C)(O)c1cc(C(=O)c2cncnc2N[C@@H]2C[C@H](COS(N)(=O)=O)[C@@H](O)C2)nn1Cc1cccc(Br)c1` [Compound I-367, {(1R,2S,4R)-4-[(5-{[1-(3-bromobenzyl)-5-(2-hydroxypropan-2-yl)-1H-pyrazol-3-yl]carbonyl}pyrimidin-4-yl)amino]-2-hydroxycyclopentyl}methyl sulfamate], the IC50 is reported as < 0.01 µM and the inhibition at 0.111 µM is reported as 99%.
With `COCc1cc(C(=O)c2cncnc2N[C@@H]2C[C@H](COS(N)(=O)=O)[C@@H](O)C2)nn1Cc1cccc(Br)c1` [Compound I-368, {(1R,2S,4R)-4-[(5-{[1-(3-bromobenzyl)-5-(methoxymethyl)-1H-pyrazol-3-yl]carbonyl}pyrimidin-4-yl)amino]-2-hydroxycyclopentyl}methyl sulfamate] the IC50 was < 0.01 µM and the inhibition at 0.111 µM was 98%.
`N[C@@H]1[C@H](O)[C@@H](COS(N)(=O)=O)C[C@H]1Nc1ncncc1C(=O)c1ccn(Cc2cccc(Br)c2)n1` [Compound I-370, {(1R,2R,3S,4R)-3-amino-4-[(5-{[1-(3-bromobenzyl)-1H-pyrazol-3-yl]carbonyl}pyrimidin-4-yl)amino]-2-hydroxycyclopentyl}methyl sulfamate.2[HCl]] was tested, and the IC50 was 0.01 to 0.1 µM and the inhibition at 0.111 µM was 78%.
